Assay results: ChEMBL document CHEMBL4665882, “Allosteric kidney-type glutaminase (GLS) inhibitors with a mercaptoethyl linker” (Bioorg Med Chem, 2020)

Legend:
[1] = Inhibition of glutaminase (unknown origin) preincubated for 60 mins; parameters: species or system Homo sapiens
[2] = target: T1, Glutaminase kidney isoform, mitochondrial (Homo sapiens, UniProt O94925); test: Allosteric inhibition of human kidney glutaminase using [3H]-Glutamine as substrate in presence of inhibitor incubated for 45 mins by Perkin Elmer based assay
T1 sequence (O94925 whole entry): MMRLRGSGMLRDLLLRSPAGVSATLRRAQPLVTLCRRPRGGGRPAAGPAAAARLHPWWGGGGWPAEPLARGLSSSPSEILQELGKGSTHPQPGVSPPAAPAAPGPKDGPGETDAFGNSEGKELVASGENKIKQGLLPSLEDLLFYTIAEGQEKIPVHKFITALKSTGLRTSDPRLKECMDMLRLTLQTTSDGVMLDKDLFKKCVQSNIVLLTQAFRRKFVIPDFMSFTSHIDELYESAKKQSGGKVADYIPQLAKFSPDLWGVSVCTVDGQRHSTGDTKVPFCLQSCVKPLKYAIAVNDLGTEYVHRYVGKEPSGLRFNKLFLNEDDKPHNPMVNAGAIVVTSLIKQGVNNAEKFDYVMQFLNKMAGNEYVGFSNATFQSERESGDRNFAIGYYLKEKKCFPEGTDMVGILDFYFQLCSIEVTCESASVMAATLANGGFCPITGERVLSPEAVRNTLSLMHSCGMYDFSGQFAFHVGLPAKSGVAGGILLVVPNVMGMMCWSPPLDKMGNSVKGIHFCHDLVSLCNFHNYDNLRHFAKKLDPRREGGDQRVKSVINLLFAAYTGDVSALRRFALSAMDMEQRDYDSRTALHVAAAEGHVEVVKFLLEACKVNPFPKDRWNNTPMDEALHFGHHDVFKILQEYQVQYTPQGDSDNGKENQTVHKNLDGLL

[3] = Metabolic stability in mouse liver microsomes assessed as compound remaining after 60 mins incubation in presence of NADPH by LC-MS/MS analysis; type: ADME, Microsome; conditions: 1 h
[4] = Aqueous solubility of compound in PBS 7.4 at 5 mg/ml incubated for 24 hrs by LC-MS-based shake-flask method; type: physicochemical; conditions: buffer, pH 7.4, 24 h
[5] = Inhibition of human recombinant glutaminase assessed as reduction in glutamate production in presence of NADPH-dependent glutamate dehydrogenase preincubated 60 mins by coupled biochemical assay

Row | Compound | IC50 [2] | further results
1 | O=C(Cc1ccccc1)Nc1nnc(CSCc2nnc(NC(=O)Cc3ccccc3)s2)s1 | > 100 µM | IC50 [1]: > 20 µM
2 | Nc1nnc(SCCc2nnc(NC(=O)Cc3ccccc3)s2)s1 | 3 µM | 
3 | Nc1nnc(SCCc2ccc(NC(=O)Cc3ccccc3)nn2)s1 | 6.8 µM | 
4 | Nc1nnc(CCSc2ccc(NC(=O)Cc3ccccc3)nn2)s1 | 14 µM | 
5 | O=C(Cc1ccccc1)Nc1nnc([C@H]2CCC[C@H](c3nnc(NC(=O)Cc4ccccc4)s3)C2)s1 |  | IC50 [1]: < 0.1 µM
6 | Nc1nnc(CCSc2nnc(NC(=O)Cc3ccccc3)s2)s1 | 1.6 µM | 
7 | O=C(Cc1cccc(OC(F)(F)F)c1)Nc1ccc(CCCCc2nnc(NC(=O)Cc3ccccn3)s2)nn1 |  | IC50 [5]: < 0.05 µM

More lines, main results first:

Row | IC50 [2] | Compound | further results
8 | 0.1 µM | O=C(Cc1ccccc1)Nc1nnc(CCSc2nnc(NC(=O)Cc3ccccn3)s2)s1 | 
9 | 0.28 µM | O=C(Cc1ccccc1)Nc1nnc([C@H]2CCC[C@H](c3nnc(NC(=O)Cc4ccccc4)s3)C2)s1 (racemic) | 
10 | 0.11 µM | O=C(Cc1ccccn1)Nc1nnc(CCSc2nnc(NC(=O)Cc3ccccc3)s2)s1 | 
11 | 0.05 µM | O=C(Cc1ccccc1)Nc1nnc(CCSc2nnc(NC(=O)Cc3ccccc3)s2)s1 | Stabilty [3]: 87%
12 | 0.14 µM | O=C(Cc1cccc(OC(F)(F)F)c1)Nc1nnc(CCSc2nnc(NC(=O)Cc3ccccc3)s2)s1 | 
13 | 0.03 µM | O=C(Cc1ccccc1)Nc1ccc(CCSc2nnc(NC(=O)Cc3ccccc3)s2)nn1 | solubility [4]: Insoluble
14 | 0.2 µM | CN(C)c1ccc(CC(=O)Nc2nnc(CCSc3nnc(NC(=O)Cc4ccccc4)s3)s2)cc1 | 
